How the values were obtained:
Type II collagen = experiment: Gene expression in 6-day pellet culture (RT-PCR); type: cell-based, murine; conditions: ATDC5 cells; 6 days in pellet culture; FIG. 13
Description: FIG. 13. Gene Expression by ATDC5 cells of Type II collagen and Sox-9 in 6-day pellet culture incubated with various concentrations of PPS in Maintenance Medium (MM).
Total RNA was isolated from Progenitor cells according to the manufacturer's instructions for the Aurum total RNA mini kit (Bio-Rad, USA). The RNA was reverse transcribed with RevertAid™ H Minus First Stand cDNA Synthesis Kit (Fermentas, USA). PCR products were transferred to an agarose gel, and visualized by ethidium bromide staining, and integrated densities calculated using Scion image analysis software, normalized to the house-keeping gene Glyceraldehydes-3-phosphate dehydrogenase (GAPDH) to permit semi-quantitative comparisons in mRNA levels. (L. Marchuk, P. Sciore, C. Reno, C. B. Frank, D. A. Hart. Postmortem stability of total RNA isolated from rabbit ligament, tendon and cartilage, Biochim Biophys Acta. 1379 (1998) 171-177. R. Boykiw, P. Sciore, C. Reno, L. Marchuk, C. B. Frank, D. A. Hart. Altered levels of extracellular matrix molecule mRNA in healing rabbit ligaments, Matrix Biol. 17 (1998) 371-378.)

human progenitor cells [1] = experiment: Proteoglycan biosynthesis (35S-GAG) in 2 day monolayer cultures; type: cell-based; conditions: monolayers; FIG. 11
Description: FIG. 11. A bar graph of the concentration dependent effects of Pentosan Polysulfate (PPS), on the biosynthesis of Proteoglycans (PGs) as determined by the incorporation of radioactively labelled sulfate into the sulfated glycosaminoglycans (^35S-GAG) of PGs after 2 day monolayer cultures of human progenitor cells. The data was expressed as ^35S-GAG radioactivity as decays per minute (DPM) normalised to DNA content. *=p<0.05; **=p<0.005; ***=p<0.0005.
Murine Progenitor cells (cell lines C3H10T1/2 or ATDC5) purchased from RIKEN Cell Bank (Tsukuba, Japan) or human immunoselected Stro-1+ Progenitor cells (Mesoblast Ltd, Melbourne, Australia) were seeded into 50 mL plastic culture flasks containing 1:1 high glucose DMEM/Ham's F-12 medium (Invitrogen) supplemented with 10% FBS (Sigma) and incubated at 37° C., in 5% CO2. After confluence was reached, progenitor cells were released by trypsinization and harvested by centrifugation. Cells were inoculated to 96-well or 24-well plates at a density of 3×10^4 cells or 2×10^5 cells per well. […] The experiments were generally terminated after 48 hours incubation when proteoglycan biosynthesis was determined by measuring the incorporation of ^35SO4 into the glycosaminoglycans (^35S-GAGs) as described below.
The data was expressed as ^35S-GAG radioactivity as decays per minute (DPM) normalised to DNA content. *=p<0.05; **=p<0.005; ***=p<0.0005.

human progenitor cells [2] = experiment: Type II collagen immunostaining of micromass cultures, 10 days; type: cell-based; conditions: FIG. 18
Description: FIG. 18. A: Bar graph showing the Pentosan Polysulfate (PPS) concentration dependent stimulation of type II collagen production by human progenitor cells in micromass cultures for 10 days as determined by scanning and digital analysis of the immuno stained micromass cultures shown in B. (see text for details).
Micromass cultures of progenitor cells were established in 24-well culture plates at a starting density of 8×10^4 cells/micromass in 1 ml of DMEM (+10% FBS) with/without various concentrations of Pentosan Polysulfate as described above. On Day-5 and Day-10 of culture, media was removed and cultures were fixed with Histochoice MB (Amresco, Solon, Ohio, USA) for 20-30 min at RT. The fixed cultures were washed twice in PBS (5 min each time); […] then washed in PBS for 5 min. […]. After rinsing, first with a gentle stream of PBS, followed by washing 3 times (5 min each time) with PBS, the wells were blocked with […] rinsing with a gentle stream of PBS then 3×washing (5 min each time) with PBS, to each micromass culture was added 200 μl of 1× (BCIP/Buffer+NBT) and the plates incubated in the reaction was stopped when the purple color first became established in the section by washing in running water. Plates and wells were then photographed with a digital camera and the images analysed by using Image J® software (http://rsb.info.nih.gov/ij/) on a personal computer.

pentosan polysulfate [PPS]
type II collagen expression (Type II collagen): up-regulated in a concentration dependent manner | chondrogenic effect (proteoglycan synthesis) (human progenitor cells [1]): chondrogenic promoting effect | Type II Collagen production (human progenitor cells [2]; 0.5-10 μg/ml, 10 days): Increased Type II Collagen production | type II collagen staining (human progenitor cells [2]; 1-10 micrograms/mL for 10 days): intense type II collagen staining | concentration giving maximum type II collagen levels (human progenitor cells [2]; 10 day micromass): 5 µg/mL

Reference: patent US9888679B2, “Protection of progenitor cells and regulation of their differentiation” (Proteobioactives Pty Ltd, priority 2007, dated 2018)
